Reference: PMC12040169 (PLOS Biology, 2025)

Test: in vitro
Details: human, hela cells

Row | Structure (SMILES) | viability at 28.5 h, 10 µM (% viability) [%] | viability at 28.5 h, 10 µM [%]
1 | CC(C)N(C)C(=O)Cc1csc(N)n1 [CBK014608] | 100 | 
2 | CC(C)NC(=O)Nc1ccccc1-c1ncn(C)n1 [CBK020922] | 95.6 | 
3 | Cc1cc(C)n(CCNC2CCN(c3ccccc3C)CC2)c(=O)n1 [CBK306848] | 89.1 | 
4 | O=C(CN1C(=O)COc2ccccc21)NCc1ccco1 [CBK269682] | 94.8 | 
5 | Cc1cc(CNC(=O)Nc2ccc(F)c(-n3nnnc3C)c2)n(C)n1 [CBK305525] | 88.4 | 
6 | Nc1ncc(-c2ccc(F)cc2)c(C2CCCN(C(=O)CCc3ccc(F)cc3)C2)n1 (stereo not drawn) [CBK286092] | 89 | 
7 | COc1ccc(C(=O)C2=C(O)C(=O)N(CCCO)C2c2ccc(Br)cc2)cc1 (stereo not drawn) [CBK263769] | 95.5 | 
8 | Cc1csc2c(N3CCSCC3)ncnc12 [CBK009169] | 100 | 
9 | Nc1nc2c3c(c(-c4ccccc4)nc2[nH]1)CCCC3 [CBK020648] | 78.2 | 
10 | Cc1ccccc1OC(C)C(=O)Nc1nnc[nH]1 (stereo not drawn) [CBK268605] | 85.6 | 
11 | c1coc(-c2cc(NC3CCCCC3)ncn2)c1 [CBK090901] | 91.2 | 
12 | O=C(Cc1ccccn1)N1CCc2ccccc2C1 [CBK200334] | 104 | 
13 | Cn1ncc2c1NC(=O)CC2c1c[nH]nc1-c1ccccc1 (stereo not drawn) [CBK287941] | 99.5 | 
14 | CS(=O)(=O)c1ccc(Cn2ccnc(OC3CCN(C(=O)c4cccc(C#N)c4)CC3)c2=O)cc1 [CBK161810] | 105 | 
15 | C#CCN1N=C(c2ccc(OC)cc2)Cn2c(cc3sccc32)C1=O [CBK284209] | 91.2 | 
16 | CCc1cn(CC(C(=O)OC)N(C)C)c(=O)[nH]c1=O (stereo not drawn) [CBK289706] | 107 | 
17 | O=C(O)c1cc2ncc(CCO)cn2n1 [CBK267635] | 99.6 | 
18 | O=C(NC(c1ccccc1)c1ccccc1)N1CCCC(CO)C1 (stereo not drawn) [CBK156036] | 95.4 | 
19 | Cc1ccc(-c2ncc(OCc3cccs3)nc2N)cc1C [CBK145146] | 101 | 
20 | O=C(CCCn1cccn1)N1CCOC(c2ccc(Cl)c(Cl)c2)C1 (stereo not drawn) [CBK304640] | 98.5 | 
21 | CCc1nn(C)cc1CNC1CCCN(c2ccc(C#N)cc2)C1=O (stereo not drawn) [CBK304176] | 96.4 | 
22 | CC1(C)CN=C(N2CCN(c3c4c(c(C#N)c5nc6ccccc6n35)CCC4)CC2)S1 [CBK263113] | 103 | 
23 | CC(C)C[C@H](NC(=O)OC(C)(C)C)C(=O)N1CCC(C(=O)O)CC1 [CBK286742] | 80.6 | 

Row | Structure (SMILES) | viability at 28.5 h, 10 µM (% viability) [%] | viability at 28.5 h, 10 µM [%]
24 | CCn1c(SCc2cc(Cl)c3c(c2)OCCO3)nnc1-c1ccc(OC)cc1 [CBK297086] | 88.9 | 
25 | CS(=O)(=O)Nc1ccc(CNC(=O)C2(c3ccccc3)CCCC2)cc1 [CBK161525] | 101 | 
26 | O=C(CSc1ccc2nnc(-c3ccccc3)n2n1)Nc1ccccc1 [CBK287513] | 82.7 | 
27 | COc1ccc(CCN2C(=O)CC(Nc3ccc(N4CCOCC4)cc3)C2=O)cc1OC (stereo not drawn) [CBK266322] | 97.7 | 
28 | COc1cc([N+](=O)[O-])ccc1NC(=O)NCc1ccc(C(=O)O)cc1 [CBK267092] | 87.1 | 
29 | COc1ccc(F)c(CN(CC2CCNCC2)C(=O)Nc2c(F)cccc2F)c1 [CBK049804] | 110 | 
30 | O=C(CCCn1ccnc1)N1CCc2[nH]c3ccccc3c2C1 [CBK281872] | 101 | 
31 | Cc1cc(COc2nccc(C(F)(F)F)n2)no1 [CBK115800] | 88.7 | 
32 | O=C(c1ccccn1)c1ccccn1 [CBK010601] | 89 | 
33 | Cc1ccc(CN2CCCC(n3c(=O)oc4ccccc43)C2)o1 (stereo not drawn) [CBK284871] | 95.6 | 
34 | O=C1C2CCCN2S(=O)(=O)c2ccccc2N1Cc1ccccc1 (stereo not drawn) [CBK284018] | 88.6 | 
35 | COc1ccc(/C=C(\C)C(=O)Nc2ccc(N3CCNCC3)c3ccccc23)cc1OC [CBK038913T] | 92.4 | 
36 | CCOC(=O)Cn1c(C)nc(C)cc1=O [CBK012419] | 103 | 
37 | COCC1CCCN(Cc2ccc(Br)cc2)C1 (stereo not drawn) [CBK304624] | 108 | 
38 | FC(F)(F)Oc1ccc(-c2cc(Nc3ccc(N4CCOCC4)cc3)ncn2)cc1 [CBK090934] | 88.9 | 
39 | CS(=O)(=O)N1CC2(CCN(Cc3ncc[nH]3)CC2)c2ccccc21 [CBK126680] | 98.8 | 
40 | CCOC(=O)c1cnc2c(Cl)cc(Cl)cc2c1NCCN1CCOCC1 [CBK307278] | 83.5 | 
41 | CC(NCC(O)COCc1ccc(Cl)cc1)c1ccccc1 (stereo not drawn) [CBK027972C] | 87.5 | 
42 | CCCC12CN3CC(CCC)(CN(C1)C3c1ccc(O)c(OC)c1)C2=O (stereo not drawn) [CBK265531] | 89 | 
43 | C=CCSc1nc2sc3c(c2c(=O)[nH]1)CCCC3 [CBK287344] | 110 | 
44 | CC1CC(C)CN(C(=O)c2cc(S(=O)(=O)N3CCOCC3)ccc2Cl)C1 (stereo not drawn) [CBK305000] | 87 | 
45 | Cc1csc2ncc(C(=O)Nc3ccc(OC(F)(F)F)cc3)c(=O)n12 [CBK287457] | 108 | 
46 | CCn1nc(C)c(NC(=O)CN(C)Cc2ccccc2C(F)(F)F)c1C [CBK306771] | 106 | 

Row | Structure (SMILES) | viability at 28.5 h, 10 µM (% viability) [%] | viability at 28.5 h, 10 µM [%]
47 | Nc1ccc(Sc2nc3ccccc3nc2C(F)(F)F)cc1 [CBK089560] | 100 | 
48 | O=C(c1ccccc1)C(Sc1nnc2sc3ccccc3n12)c1ccccc1 (stereo not drawn) [CBK265416] | 84.2 | 
49 | Cn1nccc1C(=O)N1CCC2(C/C=C/COc3ccccc3C(=O)NC[C@@H](Cc3ccccc3)NC2=O)CC1 [CBK292183] | 99.8 | 
50 | O=C(NC1CCCC1)c1ccc(=O)[nH]c1 [CBK058093] | 104 | 
51 | CCCCNc1nccnc1-c1ccccc1 [CBK088477] | 90.1 | 
52 | CC(=O)N1CCC(N2CC[C@H](c3nnc(-c4ccco4)o3)C2)CC1 [CBK289395] | 86.9 | 
53 | Cc1cc(C(=O)Nc2cccc3cc[nH]c23)ccc1Cl [CBK160078] | 96.2 | 
54 | O=C(Nc1ccc2[nH]ccc2c1)N1CCc2ccccc2C1 [CBK155289] | 84.5 | 
55 | Cc1ncsc1CCOc1cc(NC(C)C)ncn1 [CBK115884] | 84.8 | 
56 | Cc1sc(C(=O)Nc2ccc3ccccc3c2)cc1CC(=O)O [CBK267710] | 96.4 | 
57 | O=[N+]([O-])c1cccc(S(=O)(=O)NCc2ccccn2)c1 [CBK263669] | 98.4 | 
58 | OCC(O)CN1CCc2ccccc21 (stereo not drawn) [CBK260896] | 101 | 
59 | Cc1cc(F)ccc1S(=O)(=O)N1CCC2(CC1)CNC(=O)C2 [CBK283354] | 104 | 
60 | CCOCC1CN(c2cc(CO)c(F)cn2)CCO1 (stereo not drawn) [CBK304756] | 92 | 
61 | CN1C[C@@H](NS(=O)(=O)c2ccc(C#N)cc2)C[C@H]1c1nc(-c2ccncc2)no1 [CBK288871] | 86.9 | 
62 | O=C(c1ccncc1)N1Cc2ccccc2C1 [CBK200316] | 103 | 
63 | Cc1sc2ncn(CC3(O)CCCNC3)c(=O)c2c1-c1ccc(F)cc1 (stereo not drawn) [CBK307346] | 96 | 
64 | COc1ccc(OC)c(-n2nnnc2SCC2CCCN(C)C2)c1 (stereo not drawn) [CBK305386] | 84.2 | 
65 | CCC(NS(=O)(=O)c1cc(-n2cccn2)ccc1OC)C1CC(O)C1 (stereo not drawn) [CBK307103] | 106 | 
66 | CCN(CC)CCNC(=O)c1ccc(NS(=O)(=O)c2cc(C(=O)O)ccc2OC)cc1 [CBK296962] | 103 | 
67 | COc1ccc(OC)c(NC(=O)CNC(=O)c2ccc(C)cc2)c1 [CBK268881] | 91.5 | 
68 | O=C(c1ccco1)N1CCN(c2cncc(-c3ccc4ccccc4c3)n2)CC1 [CBK065184] | 89 | 
69 | COc1ccc(CN2C(=O)CO[C@H]3CN(c4nccc(C)n4)C[C@H]32)cc1 [CBK289056] | 86.1 | 

Row | Structure (SMILES) | viability at 28.5 h, 10 µM (% viability) [%] | viability at 28.5 h, 10 µM [%]
70 | CC1CCN(S(=O)(=O)c2cccc(S(=O)(=O)c3cccc(S(=O)(=O)N4CCC(C)CC4)c3)c2)CC1 [CBK261731] | 90 | 
71 | CCC(C)(C)N1CC(=O)N=C1NCCc1ccc(S(N)(=O)=O)cc1 [CBK007750] | 89.6 | 
72 | CC(C)(C(=O)N1CCC(CC(=O)NCCc2ccccc2F)CC1)c1ccc(F)cc1 [CBK286497] | 104 | 
73 | CC(C)N1CCC[C@@H]2CN(C(=O)c3cccc(C(F)(F)F)c3)C[C@@H]21 [CBK285525] | 96 | 
74 | O=C(O)c1cccc(C(=O)c2cccc(C(=O)O)c2)c1 [CBK263933] | 99.1 | 
75 | O=C(Cc1ccc(F)cc1)NCc1nnc(-c2cccs2)o1 [CBK284640] | 82.6 | 
76 | COc1ccc(C(C)C)cc1-c1cncc(NCCc2ccccn2)n1 [CBK065325] | 94.9 | 
77 | Cc1cc2c([nH]c3ccccc32)c(C)n1 [CBK262689] | 104 | 
78 | CS(=O)(=O)N1CCN(c2ccccc2NC(=O)CSc2ccc(Cl)cc2)CC1 [CBK267607] | 83.7 | 
79 | CCN(Cc1ccc(C#N)cc1F)C(=O)Nc1cnn(CCOC)c1 [CBK305697] | 91.9 | 
80 | COC(=O)c1cccc2c1ncc1c(=O)nc(N)sc12 [CBK291214] | 101 | 
81 | CCOc1cc(CNCCO)c(Cl)cc1OC [CBK269309C] | 102 | 
82 | O=C(Nc1ccc(OC(=O)N2CCCCC2)cc1)N1CCCCC1 [CBK090060] |  | 88.6
83 | CCN(CC)C(=O)CN1C(=O)C2(Nc3ccccc3C(=O)N2c2ccc(C)cc2)c2ccccc21 (stereo not drawn) [CBK093478] | 86 | 
84 | Cc1[nH]c2cccc(C(=O)N3CCCCC3CCNC(=O)c3ccccc3)c2c1C (stereo not drawn) [CBK285976] | 82 | 
85 | O=C(c1cncnc1)N1CCC(F)CC1 [CBK200384] | 92.1 | 
86 | CCCC(=O)N1CCC(c2nc(C3CCCC3)no2)C1 (stereo not drawn) [CBK285457] | 106 | 
87 | CC(=O)N1CC[C@H]2NC(=O)CNC(=O)C3(CCCC[C@H]2C1)CCN(C(=O)CN1CCCCC1)CC3 [CBK292120] | 104 | 
88 | O=[N+]([O-])c1ccc(-c2nc(-c3ccccc3)c(-c3ccc4oc5ccc(-c6[nH]c(-c7ccc([N+](=O)[O-])cc7)nc6-c6ccccc6)cc5c4c3)[nH]2)cc1 [CBK261434] | 93.9 | 
89 | CC(C)OC(=O)C(NC(=O)OC(C)(C)C)c1ccccc1 (stereo not drawn) [CBK170399] | 90.4 | 
90 | Cc1ccnc(NCC2CCN(Cc3cc(=O)n4ccccc4n3)C2)c1 (stereo not drawn) [CBK306003] | 97.3 | 
